# According to ChEMBL document CHEMBL1148064, “Nepheliosyne A, new C47 acetylenic acid from the Okinawan marine sponge Xestospongia sp” (1994):
# Columns and labels:
# KB = test: Cytotoxicity against human KB cells at 20 ug/cm'3; format: functional
# L1210 = test: Cytotoxicity against mouse L1210 cells at 20 ug/cm'3; format: functional
smiles,measurement,setting,value
C#CC(O)/C=C/C(O)C/C=C/CC(O)C#CC(O)C#CC(O)CCC/C=C\CCCCCCCCC(O)C(=O)CCCCCCCCCC(O)CC(O)C#CC(=O)O (configuration not stated) [NEPHELIOSYNE A],Activity,KB,14%
same,Activity,L1210,40%
